Among the data in patent publication US9499550B2 (BRISTOL-MYERS SQUIBB COMPANY, priority 2012, dated 2016) are EC50 values, retold here.

Molecules are shown by their SMILES. Where two headings read alike, the source gives them in different places.

Experiment [1] concerns HCV genotype 1b (Con1) replicon in HUH-7 cells. The experiment can be described thus: HCV replicon luciferase reporter assay, genotype 1b. It is filed as cell-based. Conditions: Hepatitis C virus, Huh-7, 72 h, HCV genotype 1b replicon luciferase, 3 days incubation. The essentials: (§1)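 Replicon inhibition for both genotypes was measured as Renilla luciferase signal (EnduRen, 7.5 μM final, 2 h) after 3-day, 37° C exposure of replicon-bearing HUH-7 cells in 4% FCS DMEM, 0.5% DMSO. The 1b construct carries S1179I; the 1a H77 construct carries P1496L and S2204I. Twenty-point, 3-fold dilutions were fitted four-parametrically for EC50, and CC50 was taken from multiplexed Cell Titer-Blue.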
For orientation: A replicon is a self-replicating genome or part of one, used to study replication in cells.

Experiment [2] relates to HCV genotype 1a (H77 strain) replicon in HUH-7 cells. As to the kind of experiment: HCV replicon luciferase reporter assay, genotype 1a. Type of experiment: cell-based. Particulars: Hepatitis C virus, Huh-7, 72 h, HCV genotype 1a replicon luciferase, 3 days incubation. The method in brief:
as §1

On to `CC[C@@H]1C[C@@H](C)CC/C=C\[C@@H]2C[C@@]2(C(=O)NS(=O)(=O)C2(C)CC2)NC(=O)[C@@H]2C[C@@H](Oc3nc(OC)cc4ccccc34)CN2C(=O)[C@H]1NC(=O)OC(C)(C)C` [Compound 6004, tert-butyl ((2R,6S,7R,9S,13aS,14aR,16aS,Z)-7-ethyl-2-((3-methoxyisoquinolin-1-yl)oxy)-9-methyl-14a-(((1-methylcyclopropyl)sulfonyl)carbamoyl)-5,16-dioxo-1,2,3,5,6,7,8,9,10,11,13a,14,14a,15,16,16a-hexadecahydrocyclopropa[e]pyrrolo[1,2-a][1,4]diazacyclopentadecin-6-yl)carbamate], for which the EC50 – broadly, the concentration needed to bring the measured effect to its halfway point – is < 5.46 nM in experiment [1] (read-out: LE_1b (EC50, range)) and 4.82 to 103 nM in experiment [2] (read-out: LE_1a (EC50, range)).

With `CC[C@@H]1C[C@H](C)CC/C=C\[C@@H]2C[C@@]2(C(=O)NS(=O)(=O)C2(C)CC2)NC(=O)[C@@H]2C[C@@H](Oc3nc(OC)cc4ccccc34)CN2C(=O)[C@H]1NC(=O)OC(C)(C)C` [Compound 6005, tert-butyl ((2R,6S,7R,9R,13aS,14aR,16aS,Z)-7-ethyl-2-((3-methoxyisoquinolin-1-yl)oxy)-9-methyl-14a-(((1-methylcyclopropyl)sulfonyl)carbamoyl)-5,16-dioxo-1,2,3,5,6,7,8,9,10,11,13a,14,14a,15,16,16a-hexadecahydrocyclopropa[e]pyrrolo[1,2-a][1,4]diazacyclopentadecin-6-yl)carbamate], the EC50 in experiment [1] (read-out: LE_1b (EC50)) is 0.28 nM; in experiment [1] (read-out: LE_1b (EC50, range)), < 5.46 nM; in experiment [2] (read-out: LE_1a (EC50)) it was 1.29 nM; in experiment [2] (read-out: LE_1a (EC50, range)), < 5.46 nM.

Regarding `CC[C@@H]1C[C@H](C)CC/C=C\[C@@H]2C[C@@]2(C(=O)NS(=O)(=O)C2(C)CC2)NC(=O)[C@@H]2C[C@@H](Oc3nc(OC)cc4ccccc34)CN2C(=O)[C@H]1NC(=O)OC(C)(C)C(F)(F)F` [Compound 6007, 1,1,1-trifluoro-2-methylpropan-2-yl((2R,6S,7R,9R,13aS,14aR,16aS,Z)-7-ethyl-2-((3-methoxyisoquinolin-1-yl)oxy)-9-methyl-14a-(((1-methylcyclopropyl)sulfonyl)carbamoyl)-5,16-dioxo-1,2,3,5,6,7,8,9,10,11,13a,14,14a,15,16,16a-hexadecahydrocyclopropa[e]pyrrolo[1,2-a][1,4]diazacyclopentadecin-6-yl)carbamate], the EC50 in experiment [1] (read-out: LE_1b (EC50, range)) is < 5.46 nM; in experiment [2] (read-out: LE_1a (EC50, range)), < 5.46 nM.

For `COc1cc2ccccc2c(O[C@@H]2C[C@H]3C(=O)N[C@]4(C(=O)NS(=O)(=O)C5(C)CC5)C[C@H]4/C=C\CC[C@H](C)C[C@@H](C)[C@H](NC(=O)OC(C)(C)C)C(=O)N3C2)n1` [Compound 6008, tert-butyl ((2R,6S,7R,9S,13aS,14aR,16aS,Z)-2-((3-methoxyisoquinolin-1-yl)oxy)-7,9-dimethyl-14a-(((1-methylcyclopropyl)sulfonyl)carbamoyl)-5,16-dioxo-1,2,3,5,6,7,8,9,10,11,13a,14,14a,15,16,16a-hexadecahydrocyclopropa[e]pyrrolo[1,2-a][1,4]diazacyclopentadecin-6-yl)carbamate], the EC50 in experiment [1] (read-out: LE_1b (EC50, range)) was < 5.46 nM; in experiment [2] (read-out: LE_1a (EC50, range)) it was < 5.46 nM.

In the case of `COc1cc2ccccc2c(O[C@@H]2C[C@H]3C(=O)N[C@]4(C(=O)NS(=O)(=O)C5(C)CC5)C[C@H]4/C=C\CC[C@@H](C)C[C@@H](C)[C@H](NC(=O)OC(C)(C)C)C(=O)N3C2)n1` [Compound 6009, tert-butyl ((2R,6S,7R,9R,13aS,14aR,16aS,Z)-2-((3-methoxyisoquinolin-1-yl)oxy)-7,9-dimethyl-14a-(((1-methylcyclopropyl)sulfonyl)carbamoyl)-5,16-dioxo-1,2,3,5,6,7,8,9,10,11,13a,14,14a,15,16,16a-hexadecahydrocyclopropa[e]pyrrolo[1,2-a][1,4]diazacyclopentadecin-6-yl)carbamate], the EC50 in experiment [1] (read-out: LE_1b (EC50)) is 0.3 nM; in experiment [1] (read-out: LE_1b (EC50, range)), < 5.46 nM; in experiment [2] (read-out: LE_1a (EC50)), 1.12 nM; in experiment [2] (read-out: LE_1a (EC50, range)), < 5.46 nM.

In the case of `COc1cc2ccccc2c(O[C@@H]2C[C@H]3C(=O)N[C@]4(C(=O)NS(=O)(=O)C5CC5)C[C@H]4/C=C\CC[C@@H](C)C[C@@H](C)[C@H](NC(=O)OC(C)(C)C)C(=O)N3C2)n1` [Compound 6011, tert-butyl ((2R,6S,7R,9R,13aS,14aR,16aS,Z)-14a-((cyclopropylsulfonyl)carbamoyl)-2-((3-methoxyisoquinolin-1-yl)oxy)-7,9-dimethyl-5,16-dioxo-1,2,3,5,6,7,8,9,10,11,13a,14,14a,15,16,16a-hexadecahydrocyclopropa[e]pyrrolo[1,2-a][1,4]diazacyclopentadecin-6-yl)carbamate], the EC50 is < 5.46 nM in experiment [1] (read-out: LE_1b (EC50, range)) and < 5.46 nM in experiment [2] (read-out: LE_1a (EC50, range)).

`COc1cc2ccccc2c(O[C@@H]2C[C@H]3C(=O)N[C@]4(C(=O)NS(=O)(=O)C5(C)CC5)C[C@H]4/C=C\CC[C@@H](C)C[C@@H](C)[C@H](NC(=O)OC(C)(C)C(F)(F)F)C(=O)N3C2)n1` [Compound 6015, 1,1,1-trifluoro-2-methylpropan-2-yl((2R,6S,7R,9R,13aS,14aR,16aS,Z)-2-((3-methoxyisoquinolin-1-yl)oxy)-7,9-dimethyl-14a-(((1-methylcyclopropyl)sulfonyl)carbamoyl)-5,16-dioxo-1,2,3,5,6,7,8,9,10,11,13a,14,14a,15,16,16a-hexadecahydrocyclopropa[e]pyrrolo[1,2-a][1,4]diazacyclopentadecin-6-yl)carbamate]: the EC50 in experiment [1] (read-out: LE_1b (EC50)) is 0.24 nM; in experiment [1] (read-out: LE_1b (EC50, range)) it was < 5.46 nM; in experiment [2] (read-out: LE_1a (EC50)), 1.19 nM; in experiment [2] (read-out: LE_1a (EC50, range)) it was < 5.46 nM.

Regarding `COc1cc2ccccc2c(O[C@@H]2C[C@H]3C(=O)N[C@]4(C(=O)NS(=O)(=O)C5(CF)CC5)C[C@H]4/C=C\CC[C@@H](C)C[C@@H](C)[C@H](NC(=O)OC(C)(C)C(F)(F)F)C(=O)N3C2)n1` [Compound 6016], the EC50 in experiment [1] (GETYPE1B, read-out: LE_1b (EC50, range)) is < 5.46 nM; in experiment [2] (GETYPE1A, read-out: LE_1a (EC50, range)) it was < 5.46 nM.

`COc1cc2ccccc2c(O[C@@H]2C[C@H]3C(=O)N[C@]4(C(=O)NS(=O)(=O)C5CC5)C[C@H]4/C=C\CC[C@H](C)C[C@@H](C)[C@H](NC(=O)OC(C)(C)C(F)(F)F)C(=O)N3C2)n1` [Compound 6017, 1,1,1-trifluoro-2-methylpropan-2-yl((2R,6S,7R,9S,13aS,14aR,16aS,Z)-14a-((cyclopropylsulfonyl)carbamoyl)-2-((3-methoxyisoquinolin-1-yl)oxy)-7,9-dimethyl-5,16-dioxo-1,2,3,5,6,7,8,9,10,11,13a,14,14a,15,16,16a-hexadecahydrocyclopropa[e]pyrrolo[1,2-a][1,4]diazacyclopentadecin-6-yl)carbamate]: the EC50 is < 5.46 nM in experiment [1] (read-out: LE_1b (EC50, range)) and < 5.46 nM in experiment [2] (read-out: LE_1a (EC50, range)).

Regarding `COc1cc2ccccc2c(O[C@@H]2C[C@H]3C(=O)N[C@]4(C(=O)NS(=O)(=O)C5CC5)C[C@H]4/C=C\CC[C@@H](C)C[C@@H](C)[C@H](NC(=O)OC(C)(C)C(F)(F)F)C(=O)N3C2)n1` [Compound 6018, 1,1,1-trifluoro-2-methylpropan-2-yl((2R,6S,7R,9R,13aS,14aR,16aS,Z)-14a-((cyclopropylsulfonyl)carbamoyl)-2-((3-methoxyisoquinolin-1-yl)oxy)-7,9-dimethyl-5,16-dioxo-1,2,3,5,6,7,8,9,10,11,13a,14,14a,15,16,16a-hexadecahydrocyclopropa[e]pyrrolo[1,2-a][1,4]diazacyclopentadecin-6-yl)carbamate], the EC50 in experiment [1] (read-out: LE_1b (EC50, range)) is < 5.46 nM; in experiment [2] (read-out: LE_1a (EC50, range)), < 5.46 nM.
